Results from patent publication US8951512B2, “Methods for treating bone disorders by characterizing and restoring mammalian bacterial microbiota” (New York University, priority 2010, dated 2015).

What was measured:
[1] = Sub-therapeutic antibiotic treatment (STAT) in drinking water: growth and body composition by weighing, DEXA and MRI; type: in vivo, C57BL6/J mice; details: vs control
Protocol: Low dose penicillin (6.67 mg/L) was administered in the drinking water of C57BL6/J mice either at birth (day 0, antibiotics initially received through maternal milk) or at weaning (day 28); control mice received no antibiotics. All mice were given ad libitum access to food and water, and mice were fed either standard chow (13.5% kcal from fat) or high fat diet (45% kcal from fat). Mice were weighed daily and body composition was analyzed by dual energy x-ray absorptiometry (DEXA) and magnetic resonance imaging (MRI.)
C57B6 breeder mice (F0) were obtained at 6 weeks of age from Jackson Laboratory. One male was mated with 2 females to create the F1 generation. Males and females were separated after pregnancy was detected. On day 14 of pregnancy, STAT breeder females were exposed to penicillin so that their offspring would be exposed to antibiotics from birth; control breeders had no antibiotic exposure. From the F1 generation, penicillin-treated and control mice at or near the median weight of their group were selected at 12 weeks of age to become breeders, and to produce the F2 generation. Breeder mice and offspring were maintained on their current treatment (either control or penicillin). […]
The litters were monitored closely and the following information was collected: mating pairs, date of birth, litter number, number born, number weaned, animal number, gender, and generation number. […]
Mice were anesthetized using isofluorane. Total body mass, lean mass, fat mass, body fat percentage, and bone mineral density were measured using the Lunar PIXImus densitometer. […]
Mice were anaesthetized with isofluorane. Body temperature and breathing rate were continuously monitored throughout the scan, and body temperature was maintained by flowing warm air through the coil. […] Total body fat percentage was calculated by merging the two images to generate a fat fraction image. […] The fat volume was calculated by multiplying total volume of the VOI by the mean fat %. To determine liver adiposity, 5 consecutive slices of the liver were traced to generate a liver VOI, and the average percent fat was recorded. […]

[2] = tested on: butyryl coA transferase (BCoAT) gene; assay: Degenerate quantitative PCR for BCoAT on fecal specimens; type: in vivo, mice
Protocol: (§1) Quantitative PCR assays to assess for taxa of interest were performed on a Rotor Gene 3000 quantitative PCR cycler using the LightCycler FastStart DNA Master PLUS SYBR Green I kit (Roche, Indianapolis Ind.) according to the manufacturer's instructions. Quantitative assays to assess total microbial census were performed for Bacteria using 16S rRNA and Fungi using ITS sequences. Quantitative assays were also performed for butyryl CoA transferase (BCoAT) and formyltetrahydrofolate synthetase (FTHFS). Values were normalized using total Bacterial 16S copies prior to analyses.
(§2) Because of the central role of short-chain fatty acid synthesis in colonic metabolism (Wong et al., J Clin Gastroenterol 40, 235-243 (2006)), the effect of STAT exposure on the prokaryotic genes butyryl coA transferase (BCoAT) and formyltetrahydrofolate synthetase (FTHFS) that play roles in butyrate and acetate synthesis was examined Degenerate quantitative PCRs for BCoAT and FTHFS (primers listed in Table 1) were performed on fecal specimens in STAT (penicillin) and control mice. […] These findings provide evidence that STAT exposure perturbs not only GI microbiome, composition but also abundance of genes critical to host energy homeostasis.

[3] = tested on: formyltetrahydrofolate synthetase (FTHFS) gene; assay: Degenerate quantitative PCR for FTHFS on fecal specimens; type: in vivo, mice; details: vs control
Protocol: as §1, §2

liver gene expression = assay: Hepatic gene expression profiling by microarray; type: in vivo, mice
From the text: (§3) Total DNA and total RNA was extracted from the mouse liver by the Wizard® Genomic DNA purification Kit (Promega) and RNeasy Mini Kit (Qiagen), respectively, according to the manufacturers instructions. Total RNA was reverse transcribed to cDNA using the Verso™ cDNA Synthesis Kit (Thermo Scientific). To generate standards for each target gene expression analysis, the DNA or cDNA region of interest was PCR-amplified and the PCR product was cloned using the pGEM-Teasy vector system (Promega). qPCR was performed with a LightCycler 480 SYBR Green I Master (Roche) and run in a LightCycler 480 system (Roche). Target mRNA was normalized to GAPDH mRNA as an internal control in each sample.
Expression profiling of the STAT and control animal groups (n=6 each) was performed using the Affymetrix Genechip system (Affymetrix, Santa Clara, Calif.). Total RNA quality and quantity were determined using the Agilent 2100 Bioanalyzer and Nanodrop ND-1000. Total RNA (100 ng) was used to prepare cDNA following the Affymetrix 3′IVT Express Kit labeling protocol (Affymetrix). Standardized array processing procedures recommended by Affymetrix were performed, including hybridization, fluidics processing and scanning of the Affymetrix MG-430 2.0 arrays. GeneSpring GX11 software (Agilent Technologies, Santa Clara, Calif.) was used to normalize the raw data (Affymetrix CEL files) by Robust Multichip Average algorithm (RMA).

PPARγ = assay: Hepatic qPCR normalized to GAPDH; type: in vivo, mice; details: liver qPCR, vs control
From the text: as §3

SREBP1c = assay: Hepatic qPCR normalized to GAPDH; type: in vivo, mice; details: liver, vs control; same direction as microarrays
From the text: as §3

[4] = tested on: fatty acid translocase (FAT, CD36); assay: Hepatic qPCR normalized to GAPDH; type: in vivo, mice; details: liver qPCR, vs control
From the text: as §3

[5] = tested on: insulin receptor substrate 2 (IRS-2); assay: Hepatic qPCR normalized to GAPDH; type: in vivo, mice; details: liver, vs control; same direction as microarrays
From the text: as §3

penicillin
Weight at 21 days ([1]; F1 generation, female mice): significantly decreased
Weight at 21 days ([1]; F1 generation, sex not given): no difference
Weight at 21 days ([1]; F2 generation, both females and males): significantly increased
BCoAT gene copies ([2]; at 3 weeks): 193±22 normalized copies
BCoAT gene copies ([2]; by 7 weeks, vs control): normalized
FTHFS gene copies ([3]; at 3 weeks): no significant differences
FTHFS gene copies ([3]; by 7 weeks): significantly higher
Genes significantly up- or down-regulated by t-test or PTM (liver gene expression; >45,000 genes surveyed, vs control): 466 genes
Genes significantly differed from controls by both tests (liver gene expression; t-test and PTM): 397 genes
Genes differentially expressed, fatty acid metabolism pathways (liver gene expression; vs control): 22 genes
Genes differentially expressed, lipid metabolic processes (liver gene expression; vs control): 47 genes
PPARγ normalized gene counts (PPARγ): significantly higher
SREBP1c qPCR result (SREBP1c): not statistically significant
FAT normalized gene counts [4]: significantly higher
IRS-2 qPCR result [5]: not statistically significant
